Drawing on ChEMBL document CHEMBL3638656, “Trifluoromethyl-oxadiazole derivatives and their use in the treatment of disease” (2015), this text covers IC50 for one compound.

The experiment has as its target Histone deacetylase 4 (Homo sapiens, UniProt P56524). Briefly: Inhibition Assay: Human recombinant HDAC4 was expressed in full length form (aa 2-1084) in Sf9 insect cells (obtained from ATCC) using baculovirus generated with Bac-to-Bac system (Invitrogen). Test compounds were serially diluted to reach final test concentrations from 0.003 uM to 100 uM. HDAC4 and test compounds were incubated in 25 mM Tris buffer pH 8.0 containing 137 mM NaCl, 2.7 mM KCl, 1 mM MgCl2 and 0.05% (w/v) bovine serum albumine for 2 hours at room temperature in presence of 10 uM of acetyl-Gly-Ala-Lys(E-trifluoroacetyl)-AMC (AMC=7-amino-4-methyl coumarin) in a final volume of 200 ul. Control wells with HDAC4 only (positive control) and without HDAC4 (negative control) were included on the microplate. Bovine trypsin (10 ul of a 0.4 mg/ml solution) was added and the plate incubated for additional 15 minutes at room temperature. The plate was placed in a fluorescence microplate reader, and read at an excitation wavelength of 360 nm and an emission wavelength of 450 nm.

Sequence of Histone deacetylase 4 (P56524 whole entry, the tested form may be a part): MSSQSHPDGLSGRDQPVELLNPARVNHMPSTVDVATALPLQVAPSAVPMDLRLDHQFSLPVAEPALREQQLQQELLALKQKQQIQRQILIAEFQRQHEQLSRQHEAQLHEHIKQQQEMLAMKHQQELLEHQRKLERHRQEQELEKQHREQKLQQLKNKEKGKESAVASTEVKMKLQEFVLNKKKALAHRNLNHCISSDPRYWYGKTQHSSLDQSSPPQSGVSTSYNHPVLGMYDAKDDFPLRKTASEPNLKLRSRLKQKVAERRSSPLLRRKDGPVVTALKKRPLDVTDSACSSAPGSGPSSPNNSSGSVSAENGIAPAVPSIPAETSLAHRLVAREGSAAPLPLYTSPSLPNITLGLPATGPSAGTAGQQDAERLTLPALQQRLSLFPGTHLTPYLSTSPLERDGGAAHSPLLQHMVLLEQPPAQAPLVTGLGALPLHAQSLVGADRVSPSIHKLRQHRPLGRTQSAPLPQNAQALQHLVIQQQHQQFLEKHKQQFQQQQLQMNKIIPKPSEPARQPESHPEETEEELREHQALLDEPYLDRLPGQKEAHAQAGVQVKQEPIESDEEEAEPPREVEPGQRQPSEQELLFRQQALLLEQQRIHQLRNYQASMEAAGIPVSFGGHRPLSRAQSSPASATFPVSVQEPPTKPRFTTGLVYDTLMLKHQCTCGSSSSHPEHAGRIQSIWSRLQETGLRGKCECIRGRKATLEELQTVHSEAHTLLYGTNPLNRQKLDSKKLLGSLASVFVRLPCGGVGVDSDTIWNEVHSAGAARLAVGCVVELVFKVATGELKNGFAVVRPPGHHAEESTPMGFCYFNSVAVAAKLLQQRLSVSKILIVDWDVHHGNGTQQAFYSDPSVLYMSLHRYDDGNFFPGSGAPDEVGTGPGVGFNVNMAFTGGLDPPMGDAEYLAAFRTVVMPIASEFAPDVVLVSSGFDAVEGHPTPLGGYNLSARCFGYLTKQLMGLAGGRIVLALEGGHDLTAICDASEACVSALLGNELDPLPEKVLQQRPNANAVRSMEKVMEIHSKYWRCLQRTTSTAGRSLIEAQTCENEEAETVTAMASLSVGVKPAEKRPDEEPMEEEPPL

For orientation: IC50 means the concentration that gives 50% inhibition. With `CCN(C)C[C@@H](C)NC(=O)c1ccc(-c2noc(C(F)(F)F)n2)cc1F`, the IC50 amounted to 72 nM.
